Measurements taken from US4200575A, “7[(2-Thiazolyl)-2-(oxoimino)acetamido]cephalosporin derivatives” (Takeda Chemical Industries, Ltd., priority 1977, dated 1980).

How the values were obtained:
Assay in all cases: Minimal inhibitory concentration (M.I.C.), agar dilution method
Conditions in all cases: TSA, inoculum 10^7 /ml
S. aureus 1840 = assay type: cell-based, Staphylococcus aureus
Excerpt: (§1) (a) Determination of minimal inhibitory concentrations (Tables 1 to 8):
(§2) Procedure: agar dilution method

S. aureus 209P = assay type: cell-based, Staphylococcus aureus
Excerpt: as §1, §2

S. marcescens IFO 12648 = assay type: cell-based, Serratia marcescens
Excerpt: as §1, §2

S. marcescens TN 24 = assay type: cell-based, Serratia marcescens
Excerpt: as §1, §2

E. coli 0-111 = assay type: cell-based, Escherichia coli
Excerpt: The minimal inhibitory concentrations (M.I.C.) of some representative cephalosporin derivatives of this invention as produced by the procedures described in those examples and the minimal inhibitory concentrations of cephalothin [sodium 7-(2-thienylacetamido)-3-acetoxymethyl-3-cephem-4-carboxylate], cephaloridine [7-(2-thienylacetamido)-3-(1-pyridyl)methyl-3-cephem-4-carboxylic acid betaine] and cefazolin [sodium 7-(1H-tetrazol-1-yl)acetamido-3-(2-methyl-1,3,4-thiadiazol-5-yl)thiomethyl-3-cephem-4-carboxylate], which are among the clinically established and commercially available cephalosporins (as described, for example, in the New England Journal of Medicine 294, 24, 1976 and Journal of Pharmaceutical Science 64, 1899, 1975), both against various bacteria, as well as the therapeutic effects of some respresentative cephalosporin derivatives of this invention and of cephaloridine in infected mice, are shown in tables.
as §1, §2

P. mirabilis GN 4359 = assay type: cell-based, Proteus mirabilis
Excerpt: as §1, §2

P. vulgaris GN 4413 = assay type: cell-based, Proteus vulgaris
Excerpt: as §1, §2

P. vulgaris IFO 3988 = assay type: cell-based, Proteus vulgaris
Excerpt: as §1, §2

K. pneumoniae GN 3835 = assay type: cell-based, Klebsiella pneumoniae
Excerpt: as §1, §2

K. pneumoniae DT = assay type: cell-based, Klebsiella pneumoniae
Excerpt: as §1, §2

C. freundii GN 99 = assay type: cell-based, Citrobacter freundii
Excerpt: as §1, §2

C. freundii GN 1706 = assay type: cell-based, Citrobacter freundii
Excerpt: as §1, §2

E. cloacae TN 1282 = assay type: cell-based, Enterobacter cloacae
Excerpt: as §1, §2

E. coli NIHJ JC-2 = assay type: cell-based, Escherichia coli
Excerpt: as §1, §2

E. coli T-7 = assay type: cell-based, Escherichia coli
Excerpt: as §1, §2

P. morganii IFO 3168 = assay type: cell-based, Proteus morganii
Excerpt: as §1, §2

P. rettgeri TN 338 = assay type: cell-based, Proteus rettgeri
Excerpt: as §1, §2

P. rettgeri GN4733 = assay type: cell-based, Proteus rettgeri
Excerpt: as §1, §2

Compound | minimal inhibitory concentration (M.I.C.) (S. aureus 1840) | minimal inhibitory concentration (M.I.C.) (S. aureus 209P) | minimal inhibitory concentration (M.I.C.) (S. marcescens IFO 12648) | minimal inhibitory concentration (M.I.C.) (S. marcescens TN 24) | minimal inhibitory concentration (M.I.C.) (E. coli 0-111) | minimal inhibitory concentration (M.I.C.) (P. mirabilis GN 4359) | minimal inhibitory concentration (M.I.C.) (P. vulgaris GN 4413) | minimal inhibitory concentration (M.I.C.) (P. vulgaris IFO 3988) | minimal inhibitory concentration (M.I.C.) (K. pneumoniae GN 3835) | minimal inhibitory concentration (M.I.C.) (K. pneumoniae DT) | minimal inhibitory concentration (M.I.C.) (C. freundii GN 99) | minimal inhibitory concentration (M.I.C.) (C. freundii GN 1706) | minimal inhibitory concentration (M.I.C.) (E. cloacae TN 1282) | minimal inhibitory concentration (M.I.C.) (E. coli NIHJ JC-2) | minimal inhibitory concentration (M.I.C.) (E. coli T-7) | minimal inhibitory concentration (M.I.C.) (P. morganii IFO 3168) | minimal inhibitory concentration (M.I.C.) (P. rettgeri TN 338) | minimal inhibitory concentration (M.I.C.) (P. rettgeri GN4733)
CCNC(=O)O/N=C(\C(=O)NC1C(=O)N2C(C(=O)O)=C(C)CSC12)c1csc(=N)[nH]1 (stereo not drawn) [Example II - 11] | 25 | 25 | 100 | 100 | 1.56 | 1.56 | 50 | 3.13 | 3.13 | 1.56 | 6.25 | 12.5 | 25 | 6.25 | 12.5 | 25 | 0.05 | 0.39
CNC(=O)O/N=C(\C(=O)NC1C(=O)N2C(C(=O)O)=C(COC(C)=O)CSC12)c1csc(=N)[nH]1 (stereo not drawn) [Example II - 1, sodium 7-[2-(2-imino-4-thiazolin-4-yl)-2-methylcarbamoyloximinoacetamido]-3-acetoxymethyl-3-cephem-4-carboxylate (syn-isomer)] | 3.13 | 1.56 | 3.13 | 6.25 | ≤ 0.012 | 0.1 | 12.5 | 0.05 | 0.1 | 0.05 | 0.1 | 0.39 | 1.56 | 0.1 | 0.39 | 0.39 | ≤ 0.012 | 0.05
CC(=O)OCC1=C(C(=O)O)N2C(=O)C(NC(=O)/C(=N\OC(=O)NC(C)C)c3csc(=N)[nH]3)C2SC1 (stereo not drawn) [Example II - 16] | 3.13 | 1.56 | 6.25 | 25 | 0.024 | 0.1 | 25 | 0.39 | 0.78 | 0.1 | 0.39 | 0.78 | 6.25 | 0.39 | 3.13 | 0.78 | ≤ 0.012 | 0.2
CCNC(=O)O/N=C(\C(=O)NC1C(=O)N2C(C(=O)O)=C(COC(C)=O)CSC12)c1csc(=N)[nH]1 (stereo not drawn) [Example II - 7] | 3.13 | 1.56 | 6.25 | 6.25 | 0.024 | 0.1 | 6.25 | 0.2 | 0.39 | 0.05 | 0.39 | 0.78 | 12.5 | 0.39 | 1.56 | 1.56 | ≤ 0.012 | 0.1
CC(=O)OCC1=C(C(=O)[O-])N2C(=O)C(NC(=O)Cc3cccs3)[C@H]2SC1.[Na+] (stereo partly drawn) [Cephalothin, sodium 7-(2-thienylacetamido)-3-acetoxymethyl-3-cephem-4-carboxylate, reference compound] | 0.39 | 0.20 | > 100 | > 100 | 3.13 | 3.13 | > 100 | 1.56 | 12.5 | 1.56 | 25 | > 100 | > 100 | 12.5 | 100 | > 100 | 1.56 | > 100
CCNC(=O)O/N=C(\C(=O)NC1C(=O)N2C(C(=O)O)=C(COC(N)=O)CSC12)c1csc(=N)[nH]1 (stereo not drawn) [Example II - 8] | 3.13 | 3.13 | 6.25 | 6.25 | 0.024 | 0.1 | 100 | 0.1 | 0.2 | 0.05 | 0.1 | 0.39 | 12.5 | 0.2 | 1.56 | 3.13 | ≤ 0.012 | 0.05
CNC(=O)O/N=C(\C(=O)NC1C(=O)N2C(C(=O)O)=C(CSc3nc(CC(=O)O)cs3)CSC12)c1csc(=N)[nH]1 (stereo not drawn) [Example IV - 7] | 12.5 | 12.5 | 3.13 | 6.25 | ≤ 0.2 | ≤ 0.2 | 50 | ≤ 0.2 | 0.39 | ≤ 0.2 | 0.78 | 3.13 | 12.5 | 0.78 | 6.25 | 0.78 | ≤ 0.2 | 0.39
CNC(=O)O/N=C(\C(=O)NC1C(=O)N2C(C(=O)O)=C(CSc3nc(C)ns3)CSC12)c1csc(=N)[nH]1 (stereo not drawn) [Example IV - 8] | 1.56 | 0.78 | 6.25 | 6.25 | 0.39 | 0.78 | 6.25 | 0.39 | 3.13 | 0.39 | 0.78 | 3.13 | 6.25 | 1.56 | 6.25 | 3.13 | ≤ 0.2 | 0.78
